Source: patent publication US20260365855A1, “TARGETED QUINOCYANINE DYES FOR THE INTRAOPERATIVE DELINEATION OF CANCER MARGINS” (THE TRUSTEES OF THE UNIVERSITY OF PENNSYLVANIA, priority 2022, published 2026)
Entries after “also recorded” stand apart in the source; their conditions may differ.

Assays:
[1] = Emission spectra; assay type: physicochemical; details: for NIR-II fluorescence: absorbance and emission spectra, DMSO
Description: Emission spectra. The emissions for compounds 1, 2 and 3 were obtained using a Horiba QuantaMaster with excitation at 900 nm and emissions recorded in 1 nm steps from 925 to 1300 nm. […]
Compound 3 has a maximum absorbance at 942 nm and maximum emission at 979 nm. The emission intensities were determined with excitation at 900 nm.

[2] = system: KLN 205 cells; test: Cell uptake (NIR-II emission of cell lysates); assay type: cell-based; details: 10 μM, 2 h, 37 °C; lysed with 0.5% Triton X-100
Description: KLN 205 cells were seeded into an 8 chamber slide at 15,000 cells/well. Cells were incubated overnight at 37 °C and 5% CO2. Cells were then treated in 500 μL with 10 μM of compound 1, compound 2 or compound 3, or with vehicle (DMSO). The slide was incubated for 2 hours with treatment at 37 °C and 5% CO2.
Following treatment, the solution was aspirated, and cells were rinsed twice with 500 μL of ice-cold DPBS. Triton X-100 was diluted to be 0.5% Triton, and 500 μL of this solution were added to each chamber for 10 min at 37 °C and 5% CO2 to lyse the cells. 100 μL were removed from each chamber and added to a 96-well black-well clear-bottom plate. The plate was then imaged for NIR-II emission using the PhotonEtc IR Vivo with excitation at 760, 808, 890, or 940 nm.
Cell uptake of compound 1, compound 2 and compound 3 was evaluated by incubating KLN 205 cells in 10 μM of compound 1, compound 2 and compound 3, or with DMSO for 2 hrs. Following incubation, cells were rinsed twice with ice-cold DPBS before lysing by treatment with Triton. The lysates were then transferred to a 96-well black-well clear-bottom plate and imaged for NIR-II fluorescence in the IR Vivo, as shown in FIG. 4.

[3] = Absorbance spectra; assay type: physicochemical; details: 5 μM in DMSO
Description: Absorbance spectra. The absorbances for compound 1 and compound 2 were obtained using a PerkinElmer Lambda 5 measuring absorbances in 1 nm steps from 500 to 1100 nm. The absorbance spectrum for compound 3 was obtained using a JASCO VI 70 measuring in 1 nm steps from 850 to 1150 nm. All compounds were dissolved in DMSO at a concentration of 5 μM.
Synthesis of compound 1, compound 2 and compound 3 was verified by MALDI-TOF mass spectrometry with further confirmation by ^1H-NMR.

[4] = NIR-II range; cited from earlier work
[5] = NIR-II fluorescence of compound 1 vs. JAS239 and ICG (plate imaging, IR Vivo); assay type: physicochemical; details: for NIR-II emissions; excitation requirement: discussion of NIR-I fluorophores, require excitation with a NIR-I laser; for NIR-II emission: emission 1,000-1,250 nm, DMSO, no tissue
Description: NIR-II Fluorescence of Compound 1 vs. JAS239 and ICG.
Compound 1, JAS239, and ICG were dissolved in DMSO and added to a 96-well black-well clear-bottom plate at concentrations from 1 μM to 100 μM. The plate was then imaged using the PhotonEtc IR Vivo using the NIR-II emission filter (1000-1250 nm) with excitation at 760 nm, 808 nm, 890 nm, or 940 nm.
Dyes were excited with excitation lasers at 760, 808, 890, and 940 nm and emissions were measured between 1,000 and 1,250 nm.

[6] = Depth penetration comparisons of compound 1 vs. JAS239 and ICG through chicken breast tissue
Description: Depth Penetration Comparisons of Compound 1 vs. JAS239 and ICG.
Compound 1, JAS239, and ICG were diluted in DMSO and placed in a 96-well black-well clear-bottom plate at concentrations from 0.1 μM to 100 μM. The plate was then imaged using the PhotonEtc IR Vivo using the NIR-II emission filter with excitation at 760, 808, 890, or 940 nm. Wells were then covered with thinly sliced raw chicken breast tissue from 1 mm to 3 mm thick. Imaging was then repeated for each tissue thickness.
Chicken breast tissue was layered over wells containing varying concentrations of each fluorophore in 1 mm sections. Fluorescence in the NIR-II window was measured following excitation at 760, 808, 890, and 940 nm. […] Tissue scattering, absorption, and autofluorescence decreases at increasing wavelengths of light. Thus, the improved resolution of compound 1 with increasing wavelength of excitation laser likely resulted from improved tissue penetration of the excitation laser. Compound 1 has a maximum absorption at 970 nm resulting in strong excitation of the probe and fluorescence conversion.

[7] = system: Athymic Nu/Nu mice; test: In vivo imaging after tail vein injection; details: 40 nmol via tail vein
Description: Athymic Nu/Nu mice were injected with 40 nmol compound 1 through the tail vein in Normal Saline and filtered through a 0.22 μm filter.

[8] = 5 μM in DMSO, excitation at 900 nm
[9] = excitation lasers 760 and 808 nm
[10] = excitation lasers 890 and 940 nm

Row | maximum emission [1, 8] [nm] | NIR-II fluorescence [1] | maximum absorbance [3] [nm] | NIR-II emission [5, 9] | NIR-II emission [5, 10] | NIR-II emission compared to ICG ([5]; IR Vivo, excited near its absorbance maximum) | distribution in ventral image ([7]; 5 mins after injection) | distribution in ventral image ([7]; 2 hours after injection) | Compound | emission maxima, shift compared to compound 3 [1, 8] | NIR-II fluorescence of cell lysates (cell uptake) [2] | absorbance maxima, shift compared to compound 3 [3] | NIR-II fluorescence (background statement) [4] | NIR-II emissions; excitation requirement [5] | NIR-II emission intensity, no tissue present [6] | emission intensity (comparison of compounds 1, 2 and 3) [1, 8]
1 | 1007 | measurable NIR-II fluorescence | 970 | – | – | – | – | – | 4-((E)-2((E)-2-chloro-3-(2-((Z)-1-hydroxyethylquinolin-4(JH)-ylidene)-ethylidene)cyclohex-1-en-1-yl)vinyl)-1-hydroxyethylquinolin-1-ium chloride [compound 2] | further shifted into the NIR-II window compared to compound 3 | measurable emissions; also recorded: measurable fluorescence in the NIR-II window | further shifted into the NIR-II window compared to compound 3 | – | – | – | –
2 | 979 | measurable NIR-II fluorescence | 942 | – | – | – | – | – | OCCN1C=C/C(=C/C=C/C=C/C=C/c2cc[n+](CCO)c3ccccc23)c2ccccc21.[Cl-] [compound 3, l-(2-hydroxyethyl)-4-((JE,3E,5E)-7-((Z)-J-(2-hydroxyethyl)-quinoline-4(JH)-ylidene)hepta-1,3,5-trien-1-yl)quinoline-1-ium chloride] | – | no fluorescence was observed | – | – | – | – | –

Continued, compound first:

Row | Compound | maximum emission [1, 8] [nm] | NIR-II fluorescence [1] | maximum absorbance [3] [nm] | NIR-II emission [5, 9] | NIR-II emission [5, 10] | NIR-II emission compared to ICG ([5]; IR Vivo, excited near its absorbance maximum) | distribution in ventral image ([7]; 5 mins after injection) | distribution in ventral image ([7]; 2 hours after injection) | emission maxima, shift compared to compound 3 [1, 8] | NIR-II fluorescence of cell lysates (cell uptake) [2] | absorbance maxima, shift compared to compound 3 [3] | NIR-II fluorescence (background statement) [4] | NIR-II emissions; excitation requirement [5] | NIR-II emission intensity, no tissue present [6] | emission intensity (comparison of compounds 1, 2 and 3) [1, 8]
3 | CC1(C)C(/C=C/C=C/C=C/C=C2\N(CCCCS(=O)(=O)O)c3ccc4ccccc4c3C2(C)C)=[N+](CCCCS(=O)(=O)[O-])c2ccc3ccccc3c21 [ICG, indocyanine green] | – | – | – | strongest NIR-II emissions | disappeared | – | – | – | – | – | – | measurable fluorescence at even longer wavelengths of light in the near-infrared II (NIR-II) range | measurable emissions in the NIR-II window | most intense emissions in the NIR-II window | –
4 | CC1(C)C(=C/C=C/C=C/C=C/C2=[N+](CCO)c3ccccc3C2(C)C)N(CCO)c2ccccc21 [JAS239] | – | – | – | strongest NIR-II emissions | disappeared | – | – | – | – | – | – | – | measurable emissions in the NIR-II window | – | –
5 | CCN1C=C/C(=C/C=C2\CCCC(/C=C/c3cc[n+](CC)c4ccccc34)=C2Cl)c2ccccc21.[I-] [compound 1, 4-((E)-2((E)-2-chloro-3-(2-((Z)-J-ethylquinolin-4(JH)-ylidene)-ethylidene)cyclohex-1-en-1-yl)vinyl)-J-ethylquinolin-1-ium iodide] | 1010 | measurable NIR-II fluorescence | 970 | – | strong NIR-II signal; also recorded: only compound 1 had measurable fluorescence in the NIR-II window | comparable NIR-II emissions to ICG | in the liver | in the throat, liver and intestines | further shifted into the NIR-II window compared to compound 3 | measurable emissions; also recorded: measurable fluorescence in the NIR-II window | further shifted into the NIR-II window compared to compound 3 | – | – | – | most intense emission; also recorded: highest fluorescence with an emission maximum in the NIR-II window
